Test results: ChEMBL document CHEMBL3621181, “Prokineticin Receptor Modulators May Potentially Treat Psychiatric and Neurological Disorders” (ACS Med Chem Lett, 2015)

Target: Prokineticin receptor 1 (Homo sapiens, UniProt Q8TCW9)
Experiment: Antagonist activity at human PKR1 expressed in rat RBL2H3 cells assessed as inhibition of PK1-stimulated intracellular calcium release incubated for 10 mins prior to PK1 stimulation by FLIPR assay
Assay type: functional, cell-based, RBL-2H3

Sequence of Prokineticin receptor 1 (Q8TCW9 whole entry): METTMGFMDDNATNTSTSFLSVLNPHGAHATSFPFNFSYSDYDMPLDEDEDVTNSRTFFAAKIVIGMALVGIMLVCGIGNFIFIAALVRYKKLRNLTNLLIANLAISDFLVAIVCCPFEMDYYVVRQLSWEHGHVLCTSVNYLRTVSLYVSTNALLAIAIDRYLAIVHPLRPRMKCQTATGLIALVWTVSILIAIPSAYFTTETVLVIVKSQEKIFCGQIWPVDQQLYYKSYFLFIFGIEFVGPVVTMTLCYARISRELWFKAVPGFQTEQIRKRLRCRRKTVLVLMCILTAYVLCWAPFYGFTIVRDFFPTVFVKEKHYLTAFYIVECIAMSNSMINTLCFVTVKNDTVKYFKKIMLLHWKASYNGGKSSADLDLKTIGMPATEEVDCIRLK

Structure (SMILES): CC(C)n1c(C2CCCN(C(=O)c3ccnc(N(C)C)c3)C2)nc2ccccc21 (configuration not stated)
- IC50: 320 nM

Structure (SMILES): COC1(c2ncc(Cl)cc2C)CCCN(C(=O)c2cn(C)nc2N)C1 (configuration not stated)
- IC50: > 9000 nM
